Laboratory results as given in ChEMBL document CHEMBL5365465, “Oxetanes in Drug Discovery Campaigns” (J Med Chem, 2023).
Blank lines part the entries; values can stand above or below the compound they belong to.

How the values were obtained:
[1] = target: Histone-lysine N-methyltransferase EZH2 (Homo sapiens, UniProt Q15910); assay: Inhibition of EZH2 (unknown origin)
Protease = Protease (Human immunodeficiency virus 1, UniProt Q9YQ12); assay: Inhibition of HIV protease
[2] = Metabolic stability in human liver microsomes assessed as intrinsic clearance; format: ADME, Microsome
[3] = target: T1, Leucine-rich repeat serine/threonine-protein kinase 2 (Homo sapiens, UniProt Q5S007); assay: Inhibition of LRRK2 (unknown origin)
T1 sequence (Q5S007 whole entry): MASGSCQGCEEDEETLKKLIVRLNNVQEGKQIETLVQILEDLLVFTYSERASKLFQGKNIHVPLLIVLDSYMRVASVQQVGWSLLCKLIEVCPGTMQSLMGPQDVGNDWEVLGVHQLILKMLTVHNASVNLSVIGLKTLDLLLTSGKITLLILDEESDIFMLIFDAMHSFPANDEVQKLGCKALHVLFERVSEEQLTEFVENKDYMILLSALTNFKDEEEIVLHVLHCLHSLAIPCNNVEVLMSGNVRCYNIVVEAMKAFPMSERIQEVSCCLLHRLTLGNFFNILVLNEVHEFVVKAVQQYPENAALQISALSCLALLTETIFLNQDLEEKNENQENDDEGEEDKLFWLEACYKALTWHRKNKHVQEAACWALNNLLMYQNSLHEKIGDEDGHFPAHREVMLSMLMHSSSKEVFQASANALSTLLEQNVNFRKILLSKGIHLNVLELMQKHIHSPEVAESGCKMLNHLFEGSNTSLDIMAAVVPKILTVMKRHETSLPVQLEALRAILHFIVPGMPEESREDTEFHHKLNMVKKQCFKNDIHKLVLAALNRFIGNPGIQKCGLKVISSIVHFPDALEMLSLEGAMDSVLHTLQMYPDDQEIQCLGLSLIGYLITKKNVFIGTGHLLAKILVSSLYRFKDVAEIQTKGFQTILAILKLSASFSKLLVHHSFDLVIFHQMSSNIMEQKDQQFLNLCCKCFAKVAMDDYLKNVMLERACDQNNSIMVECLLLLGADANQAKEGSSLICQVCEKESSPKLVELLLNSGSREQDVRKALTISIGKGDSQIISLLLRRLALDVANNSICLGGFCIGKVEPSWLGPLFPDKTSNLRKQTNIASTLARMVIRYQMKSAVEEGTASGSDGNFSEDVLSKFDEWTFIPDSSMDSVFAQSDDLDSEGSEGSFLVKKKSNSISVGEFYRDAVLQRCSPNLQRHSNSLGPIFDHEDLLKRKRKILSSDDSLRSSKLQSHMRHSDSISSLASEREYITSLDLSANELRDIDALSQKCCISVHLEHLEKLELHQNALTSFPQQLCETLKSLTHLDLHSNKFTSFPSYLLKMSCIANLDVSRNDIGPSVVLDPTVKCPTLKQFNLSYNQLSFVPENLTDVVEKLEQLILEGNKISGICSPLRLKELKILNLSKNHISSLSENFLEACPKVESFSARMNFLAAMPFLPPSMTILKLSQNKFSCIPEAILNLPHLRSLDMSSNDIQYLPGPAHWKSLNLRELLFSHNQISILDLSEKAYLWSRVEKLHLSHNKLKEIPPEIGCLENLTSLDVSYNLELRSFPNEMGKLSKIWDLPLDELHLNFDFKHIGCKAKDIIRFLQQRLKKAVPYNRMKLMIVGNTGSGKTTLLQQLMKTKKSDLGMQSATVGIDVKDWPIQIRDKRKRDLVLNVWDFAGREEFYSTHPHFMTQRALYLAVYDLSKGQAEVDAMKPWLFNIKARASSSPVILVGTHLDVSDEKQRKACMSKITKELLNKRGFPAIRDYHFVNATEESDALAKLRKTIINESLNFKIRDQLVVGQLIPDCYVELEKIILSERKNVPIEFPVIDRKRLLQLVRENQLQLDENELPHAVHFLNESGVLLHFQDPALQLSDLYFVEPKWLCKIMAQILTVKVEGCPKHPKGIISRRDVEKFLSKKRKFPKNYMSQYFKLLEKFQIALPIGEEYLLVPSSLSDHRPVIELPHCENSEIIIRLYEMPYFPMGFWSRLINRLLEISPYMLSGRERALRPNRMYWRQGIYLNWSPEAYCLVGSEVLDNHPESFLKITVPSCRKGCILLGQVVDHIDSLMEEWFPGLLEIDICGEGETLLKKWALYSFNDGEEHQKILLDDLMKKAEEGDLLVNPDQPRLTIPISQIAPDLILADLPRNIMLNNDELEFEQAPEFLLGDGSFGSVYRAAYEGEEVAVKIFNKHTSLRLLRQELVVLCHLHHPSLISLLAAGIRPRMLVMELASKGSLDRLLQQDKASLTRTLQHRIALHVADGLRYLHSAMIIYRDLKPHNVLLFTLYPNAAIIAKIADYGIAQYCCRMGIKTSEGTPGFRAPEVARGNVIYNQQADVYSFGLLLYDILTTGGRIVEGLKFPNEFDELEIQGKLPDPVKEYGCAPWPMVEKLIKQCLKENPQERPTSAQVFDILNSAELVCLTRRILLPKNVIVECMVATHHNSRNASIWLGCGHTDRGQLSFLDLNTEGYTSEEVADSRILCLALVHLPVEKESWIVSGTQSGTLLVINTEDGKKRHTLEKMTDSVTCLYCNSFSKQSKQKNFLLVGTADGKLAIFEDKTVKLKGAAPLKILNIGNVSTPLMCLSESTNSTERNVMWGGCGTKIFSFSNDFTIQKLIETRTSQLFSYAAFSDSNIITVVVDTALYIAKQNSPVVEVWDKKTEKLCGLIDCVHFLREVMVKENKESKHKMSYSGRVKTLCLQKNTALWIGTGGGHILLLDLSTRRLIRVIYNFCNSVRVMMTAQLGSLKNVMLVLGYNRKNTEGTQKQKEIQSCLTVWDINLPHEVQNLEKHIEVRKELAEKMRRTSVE

[4] = target: Mast/stem cell growth factor receptor Kit (Homo sapiens, UniProt P10721, D816V); assay: Inhibition of KIT D816V mutant (unknown origin)
[5] = target: Platelet-derived growth factor receptor alpha (Homo sapiens, UniProt P16234, D842V); assay: Inhibition of PDGFRalpha D842V mutant (unknown origin)
Chain of Platelet-derived growth factor receptor alpha (P16234 24-1089 D842V limits assumed): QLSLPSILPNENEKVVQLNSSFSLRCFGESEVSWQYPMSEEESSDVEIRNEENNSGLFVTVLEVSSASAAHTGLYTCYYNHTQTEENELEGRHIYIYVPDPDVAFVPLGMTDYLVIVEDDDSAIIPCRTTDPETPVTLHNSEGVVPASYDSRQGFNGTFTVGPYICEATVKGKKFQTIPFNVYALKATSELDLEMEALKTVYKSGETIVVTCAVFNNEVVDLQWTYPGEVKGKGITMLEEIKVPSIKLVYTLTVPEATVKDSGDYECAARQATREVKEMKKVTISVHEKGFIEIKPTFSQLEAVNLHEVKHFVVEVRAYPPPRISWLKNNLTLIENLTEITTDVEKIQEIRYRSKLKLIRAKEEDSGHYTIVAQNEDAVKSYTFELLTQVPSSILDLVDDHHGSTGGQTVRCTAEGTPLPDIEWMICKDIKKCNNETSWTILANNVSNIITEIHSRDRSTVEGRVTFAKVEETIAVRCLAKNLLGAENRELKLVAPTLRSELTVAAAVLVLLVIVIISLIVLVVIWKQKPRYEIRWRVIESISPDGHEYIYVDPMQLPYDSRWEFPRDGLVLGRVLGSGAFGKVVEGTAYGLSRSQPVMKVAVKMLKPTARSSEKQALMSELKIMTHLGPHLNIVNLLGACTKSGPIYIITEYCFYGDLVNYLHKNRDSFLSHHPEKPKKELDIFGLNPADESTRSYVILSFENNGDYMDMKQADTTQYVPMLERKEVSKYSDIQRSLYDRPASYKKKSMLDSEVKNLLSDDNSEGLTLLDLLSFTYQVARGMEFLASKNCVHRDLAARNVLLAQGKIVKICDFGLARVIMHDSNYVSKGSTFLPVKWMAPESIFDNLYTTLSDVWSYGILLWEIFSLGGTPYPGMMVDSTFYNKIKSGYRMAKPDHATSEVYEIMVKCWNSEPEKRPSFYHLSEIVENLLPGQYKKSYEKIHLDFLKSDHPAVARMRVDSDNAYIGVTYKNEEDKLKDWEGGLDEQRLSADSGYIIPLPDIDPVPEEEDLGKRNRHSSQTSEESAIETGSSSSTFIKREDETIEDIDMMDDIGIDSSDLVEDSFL

[6] = target: T1, Leucine-rich repeat serine/threonine-protein kinase 2; assay: Inhibition of LRRK2 in human PBMCs assessed as reduction in […] phosphorylation
[7] = Aqueous solubility of compound at pH 2; format: physicochemical

Chain of Protease (Q9YQ12 whole entry): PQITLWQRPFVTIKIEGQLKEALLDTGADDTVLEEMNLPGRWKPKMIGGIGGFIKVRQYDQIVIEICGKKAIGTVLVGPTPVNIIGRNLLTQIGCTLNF
Chain of Histone-lysine N-methyltransferase EZH2 (Q15910 whole entry): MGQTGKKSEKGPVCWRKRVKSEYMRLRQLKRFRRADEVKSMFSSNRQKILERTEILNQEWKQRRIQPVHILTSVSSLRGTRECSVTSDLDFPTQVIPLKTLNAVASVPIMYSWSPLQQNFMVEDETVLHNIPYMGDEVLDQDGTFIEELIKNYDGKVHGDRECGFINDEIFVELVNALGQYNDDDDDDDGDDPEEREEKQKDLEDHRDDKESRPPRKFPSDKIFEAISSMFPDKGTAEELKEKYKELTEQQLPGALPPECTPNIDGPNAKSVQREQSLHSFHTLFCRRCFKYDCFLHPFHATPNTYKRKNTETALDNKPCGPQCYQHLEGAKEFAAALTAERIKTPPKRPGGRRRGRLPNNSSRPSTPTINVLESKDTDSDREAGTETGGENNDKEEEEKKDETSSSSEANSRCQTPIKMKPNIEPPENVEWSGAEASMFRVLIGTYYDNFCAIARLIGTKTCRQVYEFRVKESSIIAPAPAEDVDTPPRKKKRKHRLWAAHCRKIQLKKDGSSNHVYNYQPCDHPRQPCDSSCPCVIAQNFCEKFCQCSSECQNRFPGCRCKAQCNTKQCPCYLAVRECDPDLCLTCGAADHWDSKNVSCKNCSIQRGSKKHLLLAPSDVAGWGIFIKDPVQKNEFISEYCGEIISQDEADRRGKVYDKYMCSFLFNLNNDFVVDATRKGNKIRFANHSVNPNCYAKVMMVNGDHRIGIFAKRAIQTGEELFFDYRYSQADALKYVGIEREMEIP

IC50 [1]: < 10 nM
SMILES: Cc1ccc2ccc(N[C@H]3CC[C@H](CNc4ncc(C(F)(F)C(=O)NC5COC5)cn4)CC3)nc2c1Cl

SMILES: COC(=O)N[C@H](C(=O)N[C@@H](Cc1ccc(C#Cc2ccc(N3CC4CCC(C3)N4C3COC3)nc2)cc1)[C@@H](O)CN(Cc1c(F)cc(-c2ccn(C(F)F)n2)cc1F)NC(=O)[C@@H](NC(=O)OC)C(C)(C)C(F)(F)F)C(C)(C)C(F)(F)F
EC50 (Protease): 4.8 nM

CLH [2]: 5.17 mL/min/kg
SMILES: c1cn2cc(-c3ccc4cn[nH]c4c3)nc(Nc3ccc(N4CCOCC4)cc3)c2n1 [ENTOSPLETINIB]

IC50 [3]: 9.7 nM
SMILES: CC(C)(C)Cn1cc(Nc2ncc3c(Cl)c(N4CCN(C5(C)COC5)CC4)ccc3n2)cn1

IC50 [4]: < 4.5 nM
IC50 [5]: < 4.5 nM
SMILES: C[C@](N)(c1ccc(F)cc1)c1cnc(N2CCN(c3ncnn4cc(-c5cnn(CC6COC6)c5)cc34)CC2)nc1

IC50 [6]: < 10 nM
SMILES: O=C1NCCCOc2ccc3[nH]nc(c3c2)-c2cc(cc(N3CCC4(COC4)C3)c2)CO1

solubility [7]: > 100 µM
CLH [2]: < 1.83 mL/min/kg
SMILES: Nc1cncc(-c2cn3ccnc3c(Nc3ccc(N4CCN(C5COC5)CC4)cc3)n2)n1 [LANRAPLENIB]
